# Results: patent US10590078B2, “Sodium channel blockers” (Daewoong Pharmaceutical Co., Ltd., priority 2015, dated 2020)
# Target: human sodium ion channel 1.7 (hNav1.7) (Homo sapiens, UniProt Q15858)
# Experiment: Blocking effect against sodium ion channel Nav1.7, IonFlux16 auto patch clamp in hNav1.7 HEK293 cells
# Type: cell-based
# Conditions: hNav1.7 HEK293 cells; inhibition of peak current after 50 seconds treatment; eight concentrations; read-out: IC50
# human sodium ion channel 1.7 (hNav1.7), sequence (Q15858 whole entry): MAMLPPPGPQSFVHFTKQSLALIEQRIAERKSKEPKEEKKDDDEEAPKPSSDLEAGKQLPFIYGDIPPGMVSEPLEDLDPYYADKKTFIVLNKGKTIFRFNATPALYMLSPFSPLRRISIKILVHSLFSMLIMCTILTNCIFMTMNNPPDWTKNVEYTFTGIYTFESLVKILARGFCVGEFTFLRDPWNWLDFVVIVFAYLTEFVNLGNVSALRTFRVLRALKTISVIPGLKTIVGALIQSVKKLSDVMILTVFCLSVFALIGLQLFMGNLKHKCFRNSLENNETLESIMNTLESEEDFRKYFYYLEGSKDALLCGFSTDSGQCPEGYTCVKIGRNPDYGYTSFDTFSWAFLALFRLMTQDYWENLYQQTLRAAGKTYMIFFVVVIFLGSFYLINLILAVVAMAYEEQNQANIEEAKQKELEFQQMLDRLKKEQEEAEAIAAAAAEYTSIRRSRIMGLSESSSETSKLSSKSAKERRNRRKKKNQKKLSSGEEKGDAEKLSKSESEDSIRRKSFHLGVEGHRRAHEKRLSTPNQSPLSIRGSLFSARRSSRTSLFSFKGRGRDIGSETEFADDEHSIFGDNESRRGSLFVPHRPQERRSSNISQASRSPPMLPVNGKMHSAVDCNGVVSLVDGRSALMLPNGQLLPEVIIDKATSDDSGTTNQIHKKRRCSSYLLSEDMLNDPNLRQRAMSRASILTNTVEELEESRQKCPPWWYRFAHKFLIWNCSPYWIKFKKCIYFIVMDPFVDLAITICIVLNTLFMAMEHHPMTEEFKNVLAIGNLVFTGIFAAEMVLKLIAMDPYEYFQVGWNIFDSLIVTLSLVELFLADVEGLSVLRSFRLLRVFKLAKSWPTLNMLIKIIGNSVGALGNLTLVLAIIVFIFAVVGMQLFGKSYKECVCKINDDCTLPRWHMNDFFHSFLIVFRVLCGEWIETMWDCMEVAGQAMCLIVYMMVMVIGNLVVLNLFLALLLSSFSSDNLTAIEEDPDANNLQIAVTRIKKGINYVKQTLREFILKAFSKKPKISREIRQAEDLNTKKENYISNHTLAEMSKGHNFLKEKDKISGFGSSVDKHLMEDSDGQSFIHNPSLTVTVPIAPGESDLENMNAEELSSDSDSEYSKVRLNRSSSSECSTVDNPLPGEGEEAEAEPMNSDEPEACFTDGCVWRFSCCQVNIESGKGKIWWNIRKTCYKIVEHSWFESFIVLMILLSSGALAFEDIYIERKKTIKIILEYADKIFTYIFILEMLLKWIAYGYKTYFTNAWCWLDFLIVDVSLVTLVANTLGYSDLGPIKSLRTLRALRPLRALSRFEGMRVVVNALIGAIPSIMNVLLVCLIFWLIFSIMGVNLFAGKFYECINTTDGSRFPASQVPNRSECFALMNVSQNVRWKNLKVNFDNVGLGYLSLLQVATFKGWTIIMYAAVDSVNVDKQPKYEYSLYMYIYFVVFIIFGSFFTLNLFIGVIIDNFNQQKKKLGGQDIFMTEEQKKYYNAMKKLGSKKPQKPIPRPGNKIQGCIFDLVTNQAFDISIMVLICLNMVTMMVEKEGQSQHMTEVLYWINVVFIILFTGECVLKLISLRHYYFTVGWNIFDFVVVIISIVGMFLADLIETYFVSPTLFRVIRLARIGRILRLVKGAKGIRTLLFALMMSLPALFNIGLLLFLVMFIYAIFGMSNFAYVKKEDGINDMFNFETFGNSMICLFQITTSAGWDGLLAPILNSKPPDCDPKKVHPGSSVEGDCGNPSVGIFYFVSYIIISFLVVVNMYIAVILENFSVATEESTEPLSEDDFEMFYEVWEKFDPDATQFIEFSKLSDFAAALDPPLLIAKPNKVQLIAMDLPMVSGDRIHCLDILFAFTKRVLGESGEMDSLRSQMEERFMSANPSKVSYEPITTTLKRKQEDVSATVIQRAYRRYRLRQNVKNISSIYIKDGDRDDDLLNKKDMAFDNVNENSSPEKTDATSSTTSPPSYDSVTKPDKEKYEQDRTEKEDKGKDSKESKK
row,Compound,IC50 [nM]
1,"CS(=O)(=O)NC(=O)c1cc(Cl)c(-n2nc(-c3cccc(C(F)(F)F)c3)c3cc(Cl)ccc32)cc1F [Example 64, 5-chloro-4-(5-chloro-3-(3-(trifluoromethyl)phenyl)-1H-indazol-1-yl)-2-fluoro-N-(methylsulfonyl)benzamide]",94
2,"CS(=O)(=O)NC(=O)c1cc(Cl)c(-n2cc(-c3ccc(Cl)cc3F)c3cc(F)cnc32)cc1F [Example 201, 5-chloro-4-(3-(4-chloro-2-fluorophenyl)-5-fluoro-1H-pyrrolo[2,3-b]pyridin-1-yl)-2-fluoro-N-(methylsulfonyl)benzamide]",70
3,"CS(=O)(=O)NC(=O)c1cc(Cl)c(-n2nc(Cl)c3cc(-c4ccc(C(F)(F)F)cc4)ccc32)cc1F [Example 251, 5-chloro-4-(3-chloro-5-(4-(trifluoromethyl)phenyl)-1H-indazol-1-yl)-2-fluoro-N-(methylsulfonyl)benzamide]",113
4,"CS(=O)(=O)NC(=O)c1cc(Cl)c(-n2nc(/C=C/c3ccccc3F)c3cc(Cl)ccc32)cc1F [Example 135, (E)-5-chloro-4-(5-chloro-3-(2-fluorostyryl)-1H-indazol-1-yl)-2-fluoro-N-(methylsulfonyl)benzamide]",370
5,"CS(=O)(=O)NC(=O)c1cc(Cl)c(-n2nc(Cl)c3cc(F)ccc32)cc1F [Example 17, 5-chloro-4-(3-chloro-5-fluoro-1H-indazol-1-yl)-2-fluoro-N-(methylsulfonyl)benzamide]",476
6,"Cc1cnc(NC(=O)c2cc(Cl)c(-n3nc(-c4ccc(Cl)cc4F)c4cc(Cl)ccc43)cc2F)s1 [Example 295, 5-chloro-4-(5-chloro-3-(4-chloro-2-fluorophenyl)-1H-indazol-1-yl)-2-fluoro-N-(5-methylthiazol-2-yl)benzamide]",> 10000
7,"Cn1nccc1-c1ccc2c(c1)c(Cl)nn2-c1cc(F)c(C(=O)NS(C)(=O)=O)cc1Cl [Example 256, 5-chloro-4-(3-chloro-5-(1-methyl-1H-pyrazol-5-yl)-1H-indazol-1-yl)-2-fluoro-N-(methylsulfonyl)benzamide]",3990
8,"CS(=O)(=O)NC(=O)c1cc(Cl)c(-n2nc(-c3cccnc3)c3cc(F)ccc32)cc1F [Example 165, 5-chloro-2-fluoro-4-(5-fluoro-3-(pyridin-3-yl)-1H-indazol-1-yl)-N-(methylsulfonyl)benzamide]",5490
9,"Cc1cccc(-c2cn(-c3cc(F)c(C(=O)NS(C)(=O)=O)cc3Cl)c3ncccc23)c1 [Example 215, 5-chloro-2-fluoro-N-(methylsulfonyl)-4-(3-(m-tolyl)-1H-pyrrolo[2,3-b]pyridin-1-yl)benzamide]",210
10,"CC(=O)NC(=O)c1cc(Cl)c(-n2nc(-c3ccc(Cl)cc3F)c3cc(Cl)ccc32)cc1F [Example 293, N-acetyl-5-chloro-4-(5-chloro-3-(4-chloro-2-fluorophenyl)-1H-indazol-1-yl)-2-fluorobenzamide]",> 10000
11,"CS(=O)(=O)NC(=O)c1cc(Cl)c(-n2nc(-c3cncc(Cl)c3)c3cc(Cl)ccc32)cc1F [Example 51, 5-chloro-4-(5-chloro-3-(5-chloropyridin-3-yl)-1H-indazol-1-yl)-2-fluoro-N-(methylsulfonyl)benzamide]",187
12,"CS(=O)(=O)N(Cc1ccc2ccccc2c1)C(=O)c1cc(Cl)c(-n2nc(Cl)c3cc(O)ccc32)cc1F [Example 140, 5-chloro-4-(3-chloro-5-hydroxy-1H-indazol-1-yl)-2-fluoro-N-(methylsulfonyl)-N-(naphthalen-2-ylmethyl)benzamide]",> 10000
13,"CS(=O)(=O)NC(=O)c1cc(Cl)c(-n2cc(Cl)c3cc(-c4ccc(C(F)(F)F)cc4)cnc32)cc1F [Example 261, 5-chloro-4-(3-chloro-5-(4-(trifluoromethyl)phenyl)-1H-pyrrolo[2,3-b]pyridin-1-yl)-2-fluoro-N-(methylsulfonyl)benzamide]",180
14,"N#Cc1cc(S(=O)(=O)Nc2cscn2)ccc1-n1nc(Cl)c2cc(C(F)(F)F)ccc21 [Example 278, 4-(3-chloro-5-(trifluoromethyl)-1H-indazol-1-yl)-3-cyano-N-(thiazol-4-yl)benzenesulfonamide]",8910
15,"CS(=O)(=O)NC(=O)c1cc(Cl)c(-n2nc(-c3ccc(Cl)c(F)c3)c3cc(Cl)ccc32)cc1F [Example 80, 5-chloro-4-(5-chloro-3-(4-chloro-3-fluorophenyl)-1H-indazol-1-yl)-2-fluoro-N-(methylsulfonyl)benzamide]",80
16,"CS(=O)(=O)NC(=O)c1cc(Cl)c(-n2nc(Br)c3cc(Cl)ccc32)cc1F [Example 19, 4-(3-bromo-5-chloro-1H-indazol-1-yl)-5-chloro-2-fluoro-N-(methylsulfonyl)benzamide]",216
17,"CS(=O)(=O)NC(=O)c1cc(Cl)c(-n2nc(-c3ccc(F)cc3Cl)c3cc(F)ccc32)cc1F [Example 158, 5-chloro-4-(3-(2-chloro-4-fluorophenyl)-5-fluoro-1H-indazol-1-yl)-2-fluoro-N-(methylsulfonyl)benzamide]",80
18,"CS(=O)(=O)NC(=O)c1cc(Cl)c(-n2nc(Cl)c3cc(OCC4CCCCC4)ccc32)cc1F [Example 34, 5-chloro-4-(3-chloro-5-(cyclohexylmethoxy)-1H-indazol-1-yl)-2-fluoro-N-(methylsulfonyl)benzamide]",211
19,"COc1ccc(-c2cn(-c3cc(F)c(C(=O)NS(C)(=O)=O)cc3Cl)c3ncc(Cl)cc23)cc1 [Example 196, 5-chloro-4-(5-chloro-3-(4-methoxyphenyl)-1H-pyrrolo[2,3-b]pyridin-1-yl)-2-fluoro-N-(methylsulfonyl)benzamide]",130

# The remaining lines, values ahead:
row,IC50 [nM],Compound
1,970,"CS(=O)(=O)NC(=O)c1cc(Cl)c(-n2nc(-c3cnccc3F)c3ccccc32)cc1F [Example 177, 5-chloro-2-fluoro-4-(3-(4-fluoropyridin-3-yl)-1H-indazol-1-yl)-N-(methylsulfonyl)benzamide]"
2,28,"CS(=O)(=O)NC(=O)c1cc(Cl)c(-n2nc(-c3ccc(C(F)(F)F)cc3)c3cc(Cl)ccc32)cc1F [Example 65, 5-chloro-4-(5-chloro-3-(4-(trifluoromethyl)phenyl)-1H-indazol-1-yl)-2-fluoro-N-(methylsulfonyl)benzamide]"
3,140,"CS(=O)(=O)NC(=O)c1cc(Cl)c(-n2nc(-c3cccc(C(F)(F)F)c3)c3ccccc32)cc1F [Example 172, 5-chloro-2-fluoro-N-(methylsulfonyl)-4-(3-(3-(trifluoromethyl)phenyl)-1H-indazol-1-yl)benzamide]"
4,450,"CS(=O)(=O)NC(=O)c1cc(F)c(-n2nc(-c3cccc(C#N)c3)c3cc(Cl)ccc32)cc1Cl [Example 109, 2-chloro-4-(5-chloro-3-(3-cyanophenyl)-1H-indazol-1-yl)-5-fluoro-N-(methylsulfonyl)benzamide]"
5,60,"Cc1ccccc1-c1nn(-c2cc(F)c(C(=O)NS(C)(=O)=O)cc2Cl)c2ccc(F)cc12 [Example 147, 5-chloro-2-fluoro-4-(5-fluoro-3-(o-tolyl)-1H-indazol-1-yl)-N-(methylsulfonyl)benzamide]"
6,> 10000,"CS(=O)(=O)NC(=O)c1cc(Cl)c(-n2nc(-c3ccccc3C#N)c3cc(Cl)ccc32)cc1F [Example 60, 5-chloro-4-(5-chloro-3-(2-cyanophenyl)-1H-indazol-1-yl)-2-fluoro-N-(methylsulfonyl)benzamide]"
7,210,"CS(=O)(=O)NC(=O)c1cc(Cl)c(-n2nc(-c3cc(F)ccc3F)c3cc(F)ccc32)cc1F [Example 160, 5-chloro-4-(3-(2,5-difluorophenyl)-5-fluoro-1H-indazol-1-yl)-2-fluoro-N-(methylsulfonyl)benzamide]"
8,40,"CS(=O)(=O)NC(=O)c1cc(Cl)c(-n2nc(-c3ccc(F)cc3F)c3cc(Cl)ccc32)cc1F [Example 56, 5-chloro-4-(5-chloro-3-(2,4-difluorophenyl)-1H-indazol-1-yl)-2-fluoro-N-(methylsulfonyl)benzamide]"
9,48,"CS(=O)(=O)NC(=O)c1cc(Cl)c(-n2nc(-c3ccccc3Cl)c3cc(Cl)ccc32)cc1F [Example 71, 5-chloro-4-(5-chloro-3-(2-chlorophenyl)-1H-indazol-1-yl)-2-fluoro-N-(methylsulfonyl)benzamide]"
10,3000,"COc1ncccc1-c1nn(-c2cc(Cl)c(C(=O)NS(C)(=O)=O)cc2F)c2ccc(Cl)cc12 [Example 116, 2-chloro-4-(5-chloro-3-(2-methoxypyridin-3-yl)-1H-indazol-1-yl)-5-fluoro-N-(methylsulfonyl)benzamide]"
11,6020,"COc1ncccc1-c1nn(-c2ccc(C(=O)NS(C)(=O)=O)cc2C#N)c2ccc(Cl)cc12 [Example 106, 4-(5-chloro-3-(2-methoxypyridin-3-yl)-1H-indazol-1-yl)-3-cyano-N-(methylsulfonyl)benzamide]"
12,70,"CS(=O)(=O)NC(=O)c1cc(Cl)c(-n2nc(-c3ccc(Cl)cc3F)c3ccccc32)cc1F [Example 184, 5-chloro-4-(3-(4-chloro-2-fluorophenyl)-1H-indazol-1-yl)-2-fluoro-N-(methylsulfonyl)benzamide]"
13,3890,"CS(=O)(=O)NC(=O)c1ccc(-n2nc(-c3ccc(C#N)cc3)c3cc(Cl)ccc32)c(F)c1 [Example 120, 4-(5-chloro-3-(4-cyanophenyl)-1H-indazol-1-yl)-3-fluoro-N-(methylsulfonyl)benzamide]"
14,> 10000,"CS(=O)(=O)NC(=O)c1ccc(-n2nc(-c3cccnc3)c3cc(F)ccc32)c(C#N)c1 [Example 167, 3-cyano-4-(5-fluoro-3-(pyridin-3-yl)-1H-indazol-1-yl)-N-(methylsulfonyl)benzamide]"
15,5960,"CS(=O)(=O)NC(=O)c1ccc(-n2cc(-c3ccc(Cl)cc3)c3cc(Cl)ccc32)nc1 [Example 274, 6-(5-chloro-3-(4-chlorophenyl)-1H-indol-1-yl)-N-(methylsulfonyl)nicotinamide]"
16,5290,"COc1ccccc1-c1nn(-c2ccc(C(=O)NS(C)(=O)=O)cc2C#N)c2ccc(Cl)cc12 [Example 92, 4-(5-chloro-3-(2-methoxyphenyl)-1H-indazol-1-yl)-3-cyano-N-(methylsulfonyl)benzamide]"
